Where two headings read alike, the source gives them in different places.
Key:
[1] = molecular target: T1, hM3Dq (Homo sapiens, UniProt P20309, A239G/Y149C); assay: [3H]CLZ competition binding, membranes of HEK293 cells transfected with hM3Dq
[2] = molecular target: T2, hM4Di (Homo sapiens, UniProt P08173, A203G/Y113C); assay: [3H]CLZ competition binding, membranes of HEK293 cells transfected with hM4Di
T2 sequence (P08173 1-479 Y113C/A203G): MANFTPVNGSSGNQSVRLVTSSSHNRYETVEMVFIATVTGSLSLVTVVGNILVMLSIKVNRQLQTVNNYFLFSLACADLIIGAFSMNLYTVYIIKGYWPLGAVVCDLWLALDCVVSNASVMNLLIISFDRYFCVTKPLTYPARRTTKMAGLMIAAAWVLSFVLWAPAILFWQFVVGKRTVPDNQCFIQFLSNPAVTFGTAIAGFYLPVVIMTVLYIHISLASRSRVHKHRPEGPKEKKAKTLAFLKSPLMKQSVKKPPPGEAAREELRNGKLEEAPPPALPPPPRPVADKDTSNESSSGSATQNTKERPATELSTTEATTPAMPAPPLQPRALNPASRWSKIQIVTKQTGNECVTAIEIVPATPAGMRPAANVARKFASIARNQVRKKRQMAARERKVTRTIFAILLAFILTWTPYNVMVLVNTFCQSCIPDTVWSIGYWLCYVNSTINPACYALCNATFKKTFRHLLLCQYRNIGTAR

[3] = molecular target: T1, hM3Dq; settings: read-out: Ki, nM hM3Dq; printed without SD; cited from earlier work
[4] = molecular target: T2, hM4Di; settings: read-out: Ki, nM hM4Di; printed without SD; cited from earlier work
[5] = molecular target: T1, hM3Dq; settings: hM3Dq Tg mice; cited from earlier work
[6] = molecular target: T1, hM3Dq; settings: read-out: hM3Dq EC50; DREADD agonist; cited from earlier work
[7] = test system: hM3; settings: read-out: hM3 EC50; selectivity versus native hM3; cited from earlier work
[8] = molecular target: T1, hM3Dq; assay: PET imaging with [18F]7b in transgenic mice expressing hM3Dq; assay type: in vivo, mouse
[9] = test system: wild-type mouse brain; assay: PET imaging with [18F]7b in wild-type mouse; settings: wild-type mouse lacking DREADD expression
[10] = at 50–60 min after injection, transgenic hM3Dq mice
[11] = baseline, cerebellum as reference tissue

T1 sequence (P20309 whole entry Y149C/A239G): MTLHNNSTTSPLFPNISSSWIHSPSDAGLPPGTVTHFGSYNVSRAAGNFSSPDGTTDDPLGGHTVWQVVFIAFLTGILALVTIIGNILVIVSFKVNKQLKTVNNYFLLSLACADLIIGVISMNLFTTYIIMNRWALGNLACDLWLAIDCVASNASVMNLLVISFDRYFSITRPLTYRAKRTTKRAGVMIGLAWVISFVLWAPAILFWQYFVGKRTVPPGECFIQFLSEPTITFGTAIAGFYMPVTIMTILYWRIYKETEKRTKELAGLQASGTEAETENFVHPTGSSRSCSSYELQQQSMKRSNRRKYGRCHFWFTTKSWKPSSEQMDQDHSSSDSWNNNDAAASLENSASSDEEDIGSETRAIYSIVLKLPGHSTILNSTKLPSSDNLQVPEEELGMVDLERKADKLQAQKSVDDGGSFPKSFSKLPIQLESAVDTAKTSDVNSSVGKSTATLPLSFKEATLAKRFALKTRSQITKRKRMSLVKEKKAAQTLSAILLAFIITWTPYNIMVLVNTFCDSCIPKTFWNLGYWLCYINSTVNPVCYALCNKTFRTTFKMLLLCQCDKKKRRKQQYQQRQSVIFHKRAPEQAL

Work on CCN1CCN(C2=Nc3cc(Cl)ccc3Nc3c(F)cc(F)cc32)CC1 [Compound 7h, 8-Chloro-11-(4-ethylpiperazin-1-yl)-2,4-difluoro-5H-dibenzo[b,e][1,4]diazepine] yielded a Ki [1] of 8.1 ± 0.9 nM and a Ki [2] of 18.1 ± 5.4 nM.

In the case of CN1CCN(C2=Nc3ccccc3Nc3ccccc32)CC1 [DCZ, deschloroclozapine], the Ki [3] is listed as 6.3 nM and the Ki [4] is listed as 4.2 nM.

In the case of [11CH3]N1CCN(C2=Nc3ccccc3Nc3ccccc32)CC1 [[^11C]DCZ, [^11C]deschloroclozapine], the STR/CB ratio value [5] is listed as 2.7.

For CCN1CCN(C2=Nc3cc(Cl)ccc3Nc3ccccc32)CC1 [Compound 1, 8-chloro-11-(4-ethylpiperazin-1-yl)-5H-dibenzo[b,e][1,4]diazepine], the EC50 [6] is given as 1.3 nM and the EC50 [7] is given as > 30 µM.

In the case of CCN1CCN(C2=Nc3cc(Cl)ccc3Nc3c(F)cccc32)CC1 [Compound 7d, 8-Chloro-11-(4-ethylpiperazin-1-yl)-4-fluoro-5H-dibenzo[b,e][1,4]diazepine], the “blocking effect on [18F]7b in the cerebellum” value ([8]; 7d as blocker, dose escalation) is reported as “insignificant” and the “blocking of [18F]7b binding potential in the cortex versus baseline” value ([8]; 7d as blocker, dose escalation up to 0.5 mg/kg) is reported as “significant only at the highest dose of blocker”.

With CCN1CCN(C2=Nc3ccccc3Nc3ccc([18F])cc32)CC1 [[^18F]7b, 11-(4-Ethylpiperazin-1-yl)-2-[^18F]fluoro-5H-dibenzo[b,e][1,4]diazepine] the “maximum ratio of tissue to cerebellum, cortex” value [8, 10] was 1.8, the “maximum ratio of tissue to cerebellum, striatum” value [8, 10] was 3.0 and the “binding potential BPND, cortex” value [8, 11] was 0.6. For the same molecule, the “binding potential BPND, striatum” value [8, 11] was 1.6, the “highest accumulation of radioactivity in the striatum (SUV)” value ([8]; baseline, striatum, mean ± SD of 3, transgenic hM3Dq mice) was 1.93 ± 0.33 SUV and the “accumulation of radioactivity in the brain” value [9] was “low accumulation of radioactivity in the brain”.

From paper PMC7925357 (European journal of medicinal chemistry, 2020)
